Experimental findings from patent publication US8759363B2, “Quinazoline-based T cell proliferation inhibitors” (Yissum Research Development Company of the Hebrew …, priority 2010, dated 2014) are described below.

The test system of one series is PBMC. Kind of series: PBMC proliferation, BrdU incorporation. Type of series: cell-based, human. The following applies: for IC50: Homo sapiens, ConA-stimulated PBMC, BrdU uptake, nM ± SD, read-out: IC50 PBMC proliferation inhibition; for fold increase in the IC50 of PBMC proliferation compared with compound 2: relative to compound 2. Here is the method: Blood samples were taken from healthy donors and loaded on a Ficoll density gradient to purify the PBMC population. T cells were purified by human anti-CD3 using an autoMACS instrument (Miltenyi Biotec, Bergisch-Gladbach, Germany), according to the manufacturer's instructions. The identity of T cells was confirmed by flow cytometry, as they stained positive for CD3. Cells were stimulated with ConA (10 μg/ml), ODN2006 (0.5 μg/ml; Enzo Life Sciences), or LPS (50 μg/ml; Sigma-Aldrich, Steinheim, Germany), for 72 h in the presence of the inhibitor, and their proliferation was measured in the BrdU incorporation assay as will be later described.
(§1) Cells were depleted of fetal calf serum (FCS) for 12 hours. They were then stimulated to proliferate by addition of ConA (10 μg/ml) for PBMC from healthy individuals and for Jurkat cells, FCS (10%) for HEK293 and A375 cells, PDGF (30 ng/ml) for NIH 3T3 cells, and EGF (30 ng/ml) for MDA-MB-231, Cells (1×10^5) were cultured in 96-well plates for 3 days in the presence or absence of inhibitors at the concentrations specified in the text. Each condition was tested in duplicate wells.
(§2) Proliferation was assessed by BrdU incorporation using a colorimetric ELISA kit (Roche, Germany). Subsequent to labeling with 10 μM BrdU, DNA was denatured and the cells were incubated with anti-BrdU-POD, prior to the addition of colorimetric substrate (TMB). The reaction product was quantified by measuring absorbance at 450 nm in an ELISA plate reader (ELx800 BIO-TEK Instruments Inc.).
(§3) Since we were not prejudiced towards any specific protein kinase, we used a biological assay for T cell proliferation. We tested our libraries for inhibition of proliferation of PBMC and Jurkat cells (Table 3). Cell proliferation was measured by BrdU uptake. […] PBMC cells were stimulated by a non-specific T cell mitogen, Concanavalin A (ConA). All of the compounds that were tested inhibited proliferation at micromolar or sub-micromolar concentrations.
For orientation: Incorporation of labelled thymidine or its analogues reports DNA synthesis.

A further series deals with Jurkat cells. Kind of series: Jurkat cell proliferation, BrdU incorporation. Type of series: cell-based, human. The note with it: for IC50: Homo sapiens, Jurkat, BrdU uptake, nM ± SD, read-out: IC50 Jurkat cells proliferation inhibition; for fold increase in the IC50 of Jurkat cell proliferation compared with compound 2: relative to compound 2. Here is the method: as §1, §2, §3

A word on the melting point: it is the temperature, or range, at which the solid turns liquid. In turn, `COc1ccc(CNc2nc(-c3cc(O)c(O)c(O)c3)nc3ccccc23)cc1` [Compound 33, 5-(4-(4-methoxybenzylamino)quinazolin-2-yl)benzene-1,2,3-triol] displayed a melting point greater than 250 °C. Further, in the series on PBMC, the IC50 is 3260 ± 0.49 nM. In the series with Jurkat cells, the IC50 came to 5430 ± 0.76 nM.

`COc1cc(-c2nc(Nc3ccc(Cl)cc3)c3ccccc3n2)cc(OC)c1OC` [Compound 8, N-(4-chlorophenyl)-2-(3,4,5-trimethoxyphenyl)quinazolin-4-amine] showed a melting point greater than 250 °C. Also, the IC50 in the series on PBMC came to 300 ± 0.05 nM. In addition, in the series with Jurkat cells, the IC50 was 530 ± 0.32 nM.

Turning to `Oc1cc(-c2nc(NCc3ccccc3)c3ccccc3n2)cc(O)c1O` [Compound 29, 5-(4-(benzylamino)quinazolin-2-yl)benzene-1,2,3-triol], the melting point was greater than 250 °C. In the series with PBMC, the IC50 came out at 7000 ± 3.5 nM. In addition, in the series on Jurkat cells, the IC50 came to 950 ± 0.07 nM.

`COc1ccc(Nc2nc(-c3cc(OC)c(OC)c(OC)c3)nc3ccccc23)cc1` [Compound 5, N-(4-methoxyphenyl)-2-(3,4,5-trimethoxyphenyl)quinazolin-4-amine] showed a melting point greater than 250 °C. The IC50 in the series with PBMC came out at 500 ± 0.14 nM. In addition, in the series on Jurkat cells, the IC50 amounted to 1100 ± 0.14 nM.

In the case of `COc1cc(-c2nc(Nc3ccc(O)cc3)c3ccccc3n2)cc(OC)c1OC` [Compound 4, 4-(2-(3,4,5-trimethoxyphenyl)quinazolin-4-ylamino)phenol], the melting point was greater than 250 °C. For the same compound, the IC50 with PBMC stood at 300 ± 0.14 nM. Also, in the series on Jurkat cells, the IC50 came to 230 ± 0.04 nM.

The compound `Oc1cc(-c2nc(NCCc3c[nH]c4ccccc34)c3ccccc3n2)cc(O)c1O` [Compound 36, 5-(4-(2-(1H-indol-3-yl)ethylamino)quinazolin-2-yl)benzene-1,2,3-triol] returned a melting point greater than 250 °C. Besides, in the series with PBMC, the IC50 turned out to be 1240 ± 0.74 nM. Besides, in the series with Jurkat cells, the IC50 was 1970 ± 0.74 nM.

`Cc1ccc(Nc2nc(-c3cc(O)c(O)c(O)c3)nc3ccccc23)c(C)c1` [Compound 22, 5-(4-(2,4-dimethylphenylamino)quinazolin-2-yl)benzene-1,2,3-triol] showed a melting point greater than 250 °C. Also, in the series with PBMC, the IC50 amounted to 730 ± 0.04 nM. Besides, in the series with Jurkat cells, the IC50 is 3700 ± 4.67 nM.

As to `Oc1cc(-c2nc(Nc3ccc(Cl)cc3)c3ccccc3n2)cc(O)c1O` [Compound 27, 5-(4-(4-chlorophenylamino)quinazolin-2-yl)benzene-1,2,3-triol], the melting point was greater than 250 °C. For the same compound, the IC50 with PBMC was determined as 550 ± 0.21 nM. The IC50 in the series on Jurkat cells is 4250 ± 5.3 nM.

With `COc1cc(-c2nc(Nc3ccc4[nH]ncc4c3)c3ccccc3n2)cc(OC)c1OC` [Compound 16, N-(1H-indazol-5-yl)-2-(3,4,5-trimethoxyphenyl)quinazolin-4-amine], the melting point is greater than 250 °C. In addition, the IC50 in the series with PBMC stood at 600 ± 0.28 nM. Moreover, in the series with Jurkat cells, the IC50 worked out at 700 ± 0.35 nM.

`Oc1cc(-c2nc(Nc3ccc4nc[nH]c4c3)c3ccccc3n2)cc(O)c1O` [Compound 38, 5-(4-(3H-benzo[d]imidazol-5-ylamino)quinazolin-2-yl)benzene-1,2,3-triol]: the melting point is greater than 250 °C. In the series on PBMC, the IC50 came to 4340 ± 0.74 nM. Moreover, the IC50 in the series on Jurkat cells came out at 2570 ± 0.82 nM.

Consider `Oc1cc(-c2nc(Nc3ccccc3)c3ccccc3n2)cc(O)c1O` [Compound 20, 5-(4-(phenylamino)quinazolin-2-yl)benzene-1,2,3-triol], for which the melting point is greater than 250 °C. In addition, in the series with PBMC, the IC50 was 650 ± 0.49 nM. In addition, the IC50 with Jurkat cells stood at 5500 ± 3.5 nM.

Compound `COc1cc(-c2nc(Nc3ccc4nc[nH]c4c3)c3ccccc3n2)cc(OC)c1OC` [Compound 19, N-(3H-benzoimidazol-5-yl)-2-(3,4,5-trimethoxyphenyl)quinazolin-4-amine] showed a melting point greater than 250 °C. The IC50 in the series on PBMC turned out to be 430 ± 0.11 nM. Besides, the IC50 in the series on Jurkat cells was determined as 1500 ± 0.71 nM.

`CCCCCCCCOc1ccc(Nc2nc(-c3cc(O)c(O)c(O)c3)nc3ccccc23)cc1` [Compound 25, 5-(4-(4-(octyloxy)phenylamino)quinazolin-2-yl)benzene-1,2,3-triol] had a melting point greater than 250 °C. In addition, the IC50 in the series with PBMC was determined as 4530 ± 0.31 nM. For the same compound, the IC50 in the series with Jurkat cells was found to be 4250 ± 1.3 nM.

Compound `Oc1cc(-c2nc(Nc3ccc(OC(F)(F)F)cc3)c3ccccc3n2)cc(O)c1O` [Compound 26, 5-(4-(4-(trifluoromethoxy)phenylamino)quinazolin-2-yl)benzene-1,2,3-triol] showed a melting point greater than 250 °C. Further, the IC50 with PBMC was 2780 ± 0.26 nM. In addition, the IC50 in the series on Jurkat cells is 3240 ± 0.31 nM.

`COc1cc(-c2nc(Nc3ccc(C)cc3C)c3ccccc3n2)cc(OC)c1OC` [Compound 3, N-(2,4-dimethylphenyl)-2-(3,4,5-trimethoxyphenyl)quinazolin-4-amine] registered a melting point greater than 250 °C. Further, in the series with PBMC, the IC50 stood at 750 ± 0.05 nM and the “fold increase in the IC50 of PBMC proliferation compared with compound 2” value is given as 10 fold. Further, in the series with Jurkat cells, the IC50 is 2600 ± 3.39 nM and the “fold increase in the IC50 of Jurkat cell proliferation compared with compound 2” value worked out at 10 fold.

`COc1cc(-c2nc(Nc3ccc(OC(F)(F)F)cc3)c3ccccc3n2)cc(OC)c1OC` [Compound 7, N-(4-(trifluoromethoxy)phenyl)-2-(3,4,5-trimethoxyphenyl) quinazolin-4-amine] had a melting point greater than 250 °C. In addition, in the series on PBMC, the IC50 came to 400 nM and the “fold increase in the IC50 of PBMC proliferation compared with compound 2” value is 5 fold. In the series on Jurkat cells, the IC50 came to 180 ± 0.11 nM and the “fold increase in the IC50 of Jurkat cell proliferation compared with compound 2” value is 6 fold.

`COc1ccc(Nc2nc(-c3cc(O)c(O)c(O)c3)nc3ccccc23)cc1` [Compound 24, 5-(4-(4-methoxyphenylamino)quinazolin-2-yl)benzene-1,2,3-triol] yielded a melting point greater than 250 °C. For the same compound, the IC50 in the series with PBMC was determined as 500 ± 0.14 nM. Further, the IC50 in the series with Jurkat cells worked out at 550 ± 0.21 nM.

For `Oc1cc(-c2nc(NCc3ccc(F)c(F)c3)c3ccccc3n2)cc(O)c1O` [Compound 31, 5-(4-(3,4-difluorobenzylamino)quinazolin-2-yl)benzene-1,2,3-triol], the melting point is greater than 250 °C. For the same compound, the IC50 with PBMC was 280 ± 0.04 nM. The IC50 in the series with Jurkat cells came out at 600 ± 0.21 nM.

On to `COc1ccc(CNc2nc(-c3cc(OC)c(OC)c(OC)c3)nc3ccccc23)cc1` [Compound 14, N-(4-methoxybenzyl)-2-(3,4,5-trimethoxyphenyl)quinazolin-4-amine], for which the IC50 is 500 ± 0.14 nM in the series with PBMC and 1100 ± 0.14 nM with Jurkat cells.

As for `COc1cc(-c2nc(NCc3ccc(Cl)c(Cl)c3)c3ccccc3n2)cc(OC)c1OC` [Compound 13, N-(3,4-dichlorobenzyl)-2-(3,4,5-trimethoxyphenyl)quinazolin-4-amine], the IC50 in the series with PBMC turned out to be 300 ± 0.14 nM; in the series on Jurkat cells, 730 ± 0.39 nM.

In the case of `Oc1ccc(Nc2nc(-c3cc(O)c(O)c(O)c3)nc3ccccc23)cc1` [Compound 23, 5-(4-(4-hydroxyphenylamino)quinazolin-2-yl)benzene-1,2,3-triol], the values for the IC50 in the series with PBMC and with Jurkat cells were 970 ± 0.84 nM and 1120 ± 0.28 nM, respectively.

With `CCCCCCCCOc1ccc(Nc2nc(-c3cc(OC)c(OC)c(OC)c3)nc3ccccc23)cc1` [Compound 6, N-(4-(octyloxy)phenyl)-2-(3,4,5-trimethoxyphenyl)quinazolin-4-amine], the IC50 in the series with PBMC amounted to 2400 ± 2.26 nM; in the series with Jurkat cells it was 850 ± 0.07 nM.

As for `Oc1cc(-c2nc(Nc3ccc4cn[nH]c4c3)c3ccccc3n2)cc(O)c1O` [Compound 34, 5-(4-(1H-indazol-6-ylamino)quinazolin-2-yl)benzene-1,2,3-triol], the IC50 with PBMC stood at 500 ± 0.14 nM; in the series on Jurkat cells, 690 ± 0.3 nM.
